Measured values published in patent US20060111289A1, “Compositions and methods of using Alpha-fetoprotein growth inhibitory peptides” (Serometrix, LLC,, priority 2004, published 2006).
Where a SMILES comes first, the peptide text is derived from it.

How the values were obtained:
[1] = system: three human cancer cell lines (breast, prostate, or kidney); assay: Sulforhodamine cytostatic 6-day assay, cyclic versus linear peptide; type: cell-based; settings: linear versus cyclic configuration
Method: FIG. 3 presents exemplary data showing the growth suppressive activities of the oligomeric forms of P149, cyclic versus linear, are depicted in various in vitro and in vivo models. Biological activity was determined by three growth-dependent bioassays, namely; • Panel-A and A1) an immature rodent uterine bioassay; • Panel-B and B 1) an in vitro MCF-7 foci assay; • Panel-C and C1) an in vitro tumor cell cytostatic assessment. […] See text for details. Scrambled peptide=P327.
GIP is a major participant in tumor cell surface interactions. GIP is a potent suppressor of tumor proliferation in both rodent and human cell models. GIP's biological activity is dependent on its oligomeric state, specifically its trimer (linear) versus monomer (cyclic) configuration. Biological activity was determined by three growth-dependent bioassays, namely, i) an immature rodent uterine assay; ii) an in vitro MCF-7 foci assay; and iii) an in vitro cytostatic assessment. […]
The cyclic form of GIP constitutes a disulfide-bridged monomer in solution, whereas GIP in the linear configuration is known to exist as an oligomeric trimer. […] Using three different human cancer cell lines (breast, prostate, or kidney) it was readily demonstrable that the monomeric cyclic form of the peptide produced 80-90% growth inhibition over a range of 10^−5 M to 10^−7 M when the sulforhodamine cytostatic 6-day assay was employed. […]

human platelets = assay: Platelet aggregation in human platelet-rich plasma; type: cell-based; parameters: % Inhibition Of Activity: Platelet Agg. ADP / % Inhibition Of Activity: Platelet Agg. AA / % Inhibition Of Activity: Platelet Agg. Coll: concentration or dose not given beside the values
Method: FIG. 9 presents exemplary data showing platelet aggregation modulation using 0.5 ml of normal human platelet-rich plasma (PRP) with varying amounts of P149 or P 149b using 2.5×10^6 platelets per reaction vessel.
FIG. 10 presents exemplary data showing platelet aggregation activation by arachidonic acid (AA) and collagen using P149-treated platelet suspensions • Panel A1: AA alone; • Panel A2: AA followed by epinephine (EPI) and EPI alone using P149b; • Panel A3: CD62P flow cytometry fluorescence quenching by P149; • Panel B1: collagen alone and collagen+P149; • Panel B2: collagen alone; collagen+P149a showing aggregation diminution.
GIP-derived peptide fragments and/or subfragments have been assayed for platelet aggregation by measuring light transmissions with an aggregometer using a stirred human platelet suspension. Kinlough-Rathbone et al., In: Platelet Aggregation in Measurements of Platelet Function, Eds. Harker L A, Zimmerman T S., Churchill Livingstone, London. pp. 64-87 (1983); and Whittle et al., “Specificity between the anti-aggregatory actions of prostacyclin, prostaglandin Eland D2 on platelets” In: Mechanisms of stimulus—response coupling in platelets, Eds. V. V. K., MacIntyre D E, Scully M F., New York and London: Plenum Press. pp. 109-115 (1985).
The ability of GIP and its fragments were individually examined for aggregation inhibition using citrated human platelet-rich plasma (PRP). The peptides were freshly dissolved in 0.15 M NaCl containing 2.5×10^6 platelets/ml. […]

[2] = system: 6WI-1 mammary tumor cells; assay: 6WI-1 mammary tumor in 15-day old mouse pups (6 day assay); type: in vivo; parameters: % Inhibition Of Activity: 6WI-1 Pup Ascites: concentration or dose not given beside the values; settings: mouse pups
From the text: As an alternative model of the 6WI-I mammary tumor in adult mice, an inocula of 1×10^6 tumor cells injected into 15-day old mouse pups provided a 6 day rather than a 12 day assay and replicated the same tumor growth suppression by GIP.

[3] = system: MCF-7 and 6WI-1 tumor cells; assay: Tumor cell adhesion to ECM proteins in microtiter plates; type: cell-based, human, murine
Method: FIG. 8 presents exemplary data showing the inhibition of P149 in the cellular adhesion of cancer cells to extracellular matrix (ECM) proteins for both human MCF-7 breast cancer cells and for murine 6WI-1 ascites-adapted mammary tumor cells. The cellular adhesion assay was performed in 96-well microtiter plates (Nunc Company, Denmark, catalog #263339) and the wells were pre-coated with 100 microliters of each of the above-mentioned ECM proteins for 24 hours as previously determined. After adding tumor cells, the plates were then incubated at 37° C. for various times; while 6WI-1 cells usually required only 2-4 hours incubation for adhesion; MCF-7 cells required 24 hours for attachment following trypsinization. For both cell lines, the cell culture media contained 5% calf serum to ensure cell attachment. The plates were washed twice with Hank's Saline, fixed in 0.5 mL of 37% formaldehyde, stained with crystal violet and read at […] on a microplate reader. Inset: Using a CyQUANT® stain kit, (Hoechst Corp., Germany) the plates were first exposed to a freeze/thaw cycle at −70° C. for 24 hours and 37° C. for 10 minutes. CyQUANT® buffer solution (150 microliters) was added to each well, and the cell adhesion was measured by fluorescence spectroscopy and quantitated using an ImageQuant® plate scanner (Fluorimager 595, Molecular Dynamics, Sunnyvale, Calif.).
This attachment of GIP was a slightly weaker adhesion matrix than was gelatin, chondroitin sulfate, and poly-lysine which approximated 30-35%. Using P149, the optimal amount of peptide required to inhibit tumor cell adhesion was determined by absorbing soluble peptide (1.0 pg to 100 μg) to the walls of microtiter plates. A constant number of MCF-7 tumor cells (i.e., for example, 1×10^5) were then added to the microtiter well and adhesion quantitated by fluorescence. […] The quantitation of MCF-7 and 6WI-1 cell adhesion in the presence of peptide versus peptide-free media was then determined on ECM-coated microtiter plates using 3 μg GIP/well as a competitive inhibitor. The P149 peptide was added to the wells immediately after the cells were dispensed and then the mixture was incubated as described. The AFP peptide was capable of cell adhesion inhibition in most of the ECM proteins in both tumor cell lines. Inhibition of mouse and human tumor cell adhesion was somewhat equivalent using collagen IV, fibrinogen, fibronectin, and thrombospondin. […] Thus, the GIP was found capable of eliciting different attachment inhibitions dependent on the type of ECM protein coating the wall of the microtiter plate and also the tumor cell type involved.

## CC[C@H](C)[C@H](NC(=O)[C@@H]1CSSC[C@H](NC(=O)[C@H](C)NC(=O)[C@H](CC(C)C)NC(=O)[C@H](CC(C)C)NC(=O)[C@H](CCCCN)NC(=O)[C@H](CC(=O)O)NC(=O)[C@H](CCC(=O)O)NC(=O)[C@H](CO)NC(=O)[C@@H](N)CC(C)C)C(=O)NCC(=O)N[C@@H](CCC(=O)O)C(=O)NCC(=O)N[C@@H](C)C(=O)N[C@@H](C)C(=O)N[C@@H](CC(=O)O)C(=O)N[C@@H]([C@@H](C)CC)C(=O)N[C@@H]([C@@H](C)CC)C(=O)N[C@@H]([C@@H](C)CC)C(=O)NCC(=O)N[C@@H](Cc2c[nH]cn2)C(=O)N[C@@H](CC(C)C)C(=O)N1)C(=O)N[C@@H](CCCNC(=N)N)C(=O)N[C@@H](Cc1c[nH]cn1)C(=O)N[C@@H](CCC(=O)O)C(=O)N[C@@H](CCSC)C(=O)N[C@H](C(=O)N1CCC[C@H]1C(=O)N[C@H](C(=O)N[C@@H](CC(N)=O)C(=O)N1CCC[C@H]1C(=O)NCC(=O)N[C@H](C(=O)O)C(C)C)C(C)C)[C@@H](C)O [Cyclic GIP] (HELM PEPTIDE1{L.S.E.D.K.L.L.A.C.G.E.G.A.A.D.I.I.I.G.H.L.C.I.R.H.E.M.T.P.V.N.P.G.V}$PEPTIDE1,PEPTIDE1,9:R3-22:R3$$$V2.0; N-terminus and C-terminus assumed)
[1]
  Inhibition in the in vitro cytostatic assay: 80-90%

## KDFIHKQGVALQTMKQELINLVKELVKPQIEAVADFSGLL (listed as Homo sapiens) [P192, reference compound]
Human platelets; ADP-induced
  % Inhibition Of Activity: Platelet Agg. ADP: 0%
Human platelets; arachidonic acid-induced
  % Inhibition Of Activity: Platelet Agg. AA: 0%
Human platelets; collagen-induced
  % Inhibition Of Activity: Platelet Agg. Coll: 0%
Human platelets; peptide inhibitors 30 & 100 μM
  Inhibition (%) Of Platelet Aggregation, Adenosine Diphosphate (ADP) 2.5 μM: No effect
  Inhibition (%) Of Platelet Aggregation, Arachidonic Acid (AA) 0.3 mM: No effect
  Inhibition (%) Of Platelet Aggregation, Collagen (COLL) 2 μg/ml: No effect
  Inhibition (%) Of Platelet Aggregation, Epinephrine: No effect
[2]
  % Inhibition Of Activity: 6WI-1 Pup Ascites: 0%
[3]
  % Inhibition Of Activity: Cell Adhesion: 0%
